According to paper PMC11108815 (Heliyon, 2024):
Marks after values point to notes of the source that are not given here.

Key:
[1] = Pharmacokinetics in rat plasma; assay type: in vivo, Wistar rats; settings: for AUC(0-inf): AUC0-∞; for CL/F: CLz/F; for MRT last: MRT0-t; for MRT inf: MRT0-∞
[2] = Stability test of QC samples; assay type: physicochemical, rat
[3] = Wistar, rat, plasma, po, 100 mg/kg, AUC0-t, FS-C: normal (blank) rats, oral FS 100 mg kg^−1, n = 6
[4] = Wistar, rat, plasma, po, 100 mg/kg, AUC0-t, FT-C: normal (blank) rats, oral FT 100 mg kg^−1, n = 6
[5] = Wistar, rat, plasma, po, 100 mg/kg, FS-C: normal (blank) rats, oral FS 100 mg kg^−1, n = 6
[6] = Wistar, rat, plasma, po, 100 mg/kg, FT-C: normal (blank) rats, oral FT 100 mg kg^−1, n = 6
[7] = Wistar, rat, plasma, po, 100 mg/kg, Cmax, FS-C: normal (blank) rats, oral FS 100 mg kg^−1, n = 6
[8] = Wistar, rat, plasma, po, 100 mg/kg, Cmax, FT-C: normal (blank) rats, oral FT 100 mg kg^−1, n = 6
[9] = Wistar, rat, plasma, po, 100 mg/kg, T1/2, FS-C: normal (blank) rats, oral FS 100 mg kg^−1, n = 6
[10] = Wistar, rat, plasma, po, 100 mg/kg, Tmax, FS-C: normal (blank) rats, oral FS 100 mg kg^−1, n = 6
[11] = Wistar, rat, plasma, po, 100 mg/kg, Tmax, FT-C: normal (blank) rats, oral FT 100 mg kg^−1, n = 6
[12] = Wistar, rat, plasma, po, 100 mg/kg, Tmax, control group, after oral administration of FS or FT
[13] = Store at 4 °C for 24 h, high concentration QC sample in rat plasma
[14] = Store at 4 °C for 24 h, low concentration QC sample in rat plasma
[15] = Store at 4 °C for 24 h, medium concentration QC sample in rat plasma
[16] = Store at room temperature for 12 h, high concentration QC sample in rat plasma
[17] = Store at room temperature for 12 h, low concentration QC sample in rat plasma
[18] = Store at room temperature for 12 h, medium concentration QC sample in rat plasma
[19] = Store at −20 °C for 20 days, high concentration QC sample in rat plasma
[20] = Store at −20 °C for 20 days, low concentration QC sample in rat plasma
[21] = Store at −20 °C for 20 days, medium concentration QC sample in rat plasma
[22] = Three freeze-thaw cycles, high concentration QC sample in rat plasma
[23] = Three freeze-thaw cycles, low concentration QC sample in rat plasma
[24] = Three freeze-thaw cycles, medium concentration QC sample in rat plasma
[25] = FS-C: normal (blank) rats, oral FS 100 mg kg^−1, n = 6
[26] = FS-M: microcirculation dysfunction model rats, oral FS 100 mg kg^−1, n = 6
[27] = FT-C: normal (blank) rats, oral FT 100 mg kg^−1, n = 6
[28] = FT-M: microcirculation dysfunction model rats, oral FT 100 mg kg^−1, n = 6
[29] = Wistar, rat, plasma, po, 100 mg/kg, T1/2, FT-C: normal (blank) rats, oral FT 100 mg kg^−1, n = 6

SMILES: O=C(O)/C=C/c1ccc(O)c(O)c1 [Caffeic acid]
- AUC(0-t) [1, 3]: 37.2 ± 11.5 ng·h/mL
- AUC(0-t) [1, 4]: 31.7 ± 12 ng·h/mL
- AUC(0-inf) [1, 5]: 40.5 ± 18.6 ng·h/mL
- AUC(0-inf) [1, 6]: 44.4 ± 30.2 ng·h/mL
- CL/F [1, 5]: 5.67 mL/min/kg
- CL/F [1, 6]: 10.2 mL/min/kg
- Cmax [1, 7]: 5.78 ± 0.23 ng/mL
- Cmax [1, 8]: 4.65 ± 0.38 ng/mL
- MRT last [1, 5]: 5.78 ± 2.57 h
- MRT last [1, 6]: 5.61 ± 2.5 h
- MRT inf [1, 5]: 7.21 ± 5.95 h
- MRT inf [1, 6]: 10.7 ± 10.2 h
- half-life [1, 9]: 3.62 ± 4.88 h
- Tmax [1, 10]: 0.72 ± 0.31 h
- Tmax [1, 11]: 0.61 ± 0.68 h
- Tmax [1, 12]: > 0.47 h
- Cmax in FT compared with FS ([1]; normal group, p < 0.01, 0.05): significantly lower
- Cmax after modeling compared with control group ([1]; oral administration of FS): decreased
- AUC0-t after modeling compared with control group ([1]; oral administration of FT): increased
- Stability, Accuracy (RE, %) [2, 13]: 2.95%
- Stability, Accuracy (RE, %) [2, 14]: 6.27%
- Stability, Accuracy (RE, %) [2, 15]: −2.07%
- Stability, Accuracy (RE, %) [2, 16]: 5.38%
- Stability, Accuracy (RE, %) [2, 17]: −2.45%
- Stability, Accuracy (RE, %) [2, 18]: 2.52%
- Stability, Accuracy (RE, %) [2, 19]: 3.39%
- Stability, Accuracy (RE, %) [2, 20]: −12.26%
- Stability, Accuracy (RE, %) [2, 21]: 0.41%
- Stability, Accuracy (RE, %) [2, 22]: 12.71%
- Stability, Accuracy (RE, %) [2, 23]: 3.68%
- Stability, Accuracy (RE, %) [2, 24]: 11.31%

SMILES: O=C(O)[C@H](O)Cc1ccc(O)c(O)c1 [Danshensu]
- AUC0-∞ [1, 25]: 641.77 ± 218.27 µg·h/L
- AUC(0-t) [1, 25]: 542.82 ± 141.09 ng·h/mL
- CLz/F [1, 25]: 0.02 ± 0.01 L/h/kg
- Cmax [1, 25]: 88.45 ± 17.93 ng/mL
- MRT0-t [1, 25]: 6.53 ± 2.11 h
- MRT0-∞ [1, 25]: 11.93 ± 15.11 h
- T1/2 [1, 25]: 5.74 ± 11.19 h
- Tmax [1, 25]: 0.67 ± 0.37 h
- AUC0-∞ [1, 26]: 947.33 ± 140.96 ^c μg·h·L^−1
- AUC(0-t) [1, 26]: 880.02 ± 141.73 ^d μg·h·L^−1
- CLz/F [1, 26]: 0.01 ± 0.00 ^c L·h^−1·kg^−1
- Cmax [1, 26]: 105.53 ± 11.68 ng/mL
- MRT0-t [1, 26]: 7.53 ± 0.85 h
- MRT0-∞ [1, 26]: 9.53 ± 3.95 h
- T1/2 [1, 26]: 4.47 ± 3.92 h
- Tmax [1, 26]: 0.74 ± 1.60 h
- AUC0-∞ [1, 27]: 588.72 ± 114.83 µg·h/L
- AUC(0-t) [1, 27]: 584.67 ± 122.39 ng·h/mL
- CLz/F [1, 27]: 0.02 ± 0.00 L/h/kg
- Cmax [1, 27]: 99.66 ± 15.57 ng/mL
- MRT0-t [1, 27]: 7.54 ± 0.95 h
- MRT0-∞ [1, 27]: 7.81 ± 0.63 h
- T1/2 [1, 27]: 2.18 ± 2.22 h
- Tmax [1, 27]: 0.47 ± 0.07 h
- AUC0-∞ [1, 28]: 767.88 ± 279.35 µg·h/L
- AUC(0-t) [1, 28]: 658.64 ± 172.02 ng·h/mL
- CLz/F [1, 28]: 0.02 ± 0.01 L/h/kg
- Cmax [1, 28]: 165.48 ± 7.83^f μg·L^−1
- MRT0-t [1, 28]: 5.33 ± 0.98 ^a^, ^e h
- MRT0-∞ [1, 28]: 10.76 ± 12.84 h
- T1/2 [1, 28]: 6.40 ± 11.48 h
- Tmax [1, 28]: 1.00 ± 0.00 ^f h
- AUC0-t in model group compared with control group ([1]; after modeling, p < 0.01, 0.05): significantly higher
- AUC0-∞ in model group compared with control group ([1]; after modeling, p < 0.01, 0.05): significantly higher
- MRT0-t in the model group treated with FT ([1]; compared with the control group treated with FT and the model group treated with FS): decreased
- shape of the drug-time curve ([1]; control group with oral FS): bimodal phenomenon
- CLz/F after modeling compared with control group ([1]; oral administration of FS): decrease
- Cmax after modeling compared with control group ([1]; oral administration of FT): significant increase
- Stability, Accuracy (RE, %) [2, 13]: 6.29%
- Stability, Accuracy (RE, %) [2, 14]: −5.50%
- Stability, Accuracy (RE, %) [2, 15]: 5.99%
- Stability, Accuracy (RE, %) [2, 16]: 9.76%
- Stability, Accuracy (RE, %) [2, 17]: −2.61%
- Stability, Accuracy (RE, %) [2, 18]: 1.50%
- Stability, Accuracy (RE, %) [2, 19]: −8.83%
- Stability, Accuracy (RE, %) [2, 20]: 6.50%
- Stability, Accuracy (RE, %) [2, 21]: 0.73%
- Stability, Accuracy (RE, %) [2, 22]: −3.63%
- Stability, Accuracy (RE, %) [2, 23]: 2.54%
- Stability, Accuracy (RE, %) [2, 24]: −10.44%

SMILES: O=C(/C=C/c1ccc(O)c2c1[C@H](C(=O)O)[C@@H](c1ccc(O)c(O)c1)O2)O[C@H](Cc1ccc(O)c(O)c1)C(=O)O [Lithospermic acid]
- AUC(0-t) [1, 3]: 128 ± 40.5 ng·h/mL
- AUC(0-t) [1, 4]: 119 ± 48.8 ng·h/mL
- AUC(0-inf) [1, 5]: 164 ± 85 ng·h/mL
- AUC(0-inf) [1, 6]: 119 ± 48.9 ng·h/mL
- CL/F [1, 5]: 150 mL/min/kg
- CL/F [1, 6]: 289 mL/min/kg
- Cmax [1, 7]: 11.4 ± 1.33 ng/mL
- Cmax [1, 8]: 13.7 ± 2.76 ng/mL
- MRT last [1, 5]: 6.61 ± 1.61 h
- MRT last [1, 6]: 8.67 ± 3.71 h
- MRT inf [1, 5]: 11.1 ± 10.8 h
- MRT inf [1, 6]: 8.67 ± 3.71 h
- half-life [1, 9]: 5.06 ± 8.9 h
- half-life [1, 29]: 1.03 ± 0.45 h
- Tmax [1, 10]: 0.31 ± 0.16 h
- Tmax [1, 11]: 0.22 ± 0.13 h
- Tmax [1, 12]: < 0.39 h
- AUC0-t in model group compared with control group ([1]; after modeling, p < 0.01, 0.05): significantly higher
- shape of the drug-time curve ([1]; both the control and model groups treated with oral FS or FT): bimodal phenomenon
- Cmax after modeling compared with control group ([1]; oral administration of FS): increased
- Stability, Accuracy (RE, %) [2, 13]: 7.65%
- Stability, Accuracy (RE, %) [2, 14]: 6.82%
- Stability, Accuracy (RE, %) [2, 15]: 6.58%
- Stability, Accuracy (RE, %) [2, 16]: 11.92%
- Stability, Accuracy (RE, %) [2, 17]: −5.80%
- Stability, Accuracy (RE, %) [2, 18]: 0.69%
- Stability, Accuracy (RE, %) [2, 19]: −0.73%
- Stability, Accuracy (RE, %) [2, 20]: −8.45%
- Stability, Accuracy (RE, %) [2, 21]: 0.15%
- Stability, Accuracy (RE, %) [2, 22]: −10.67%
- Stability, Accuracy (RE, %) [2, 23]: 6.56%
- Stability, Accuracy (RE, %) [2, 24]: 9.01%

SMILES: C[C@@H]1O[C@@H](OC[C@H]2O[C@@H](Oc3c(-c4ccc(O)c(O)c4)oc4cc(O)cc(O)c4c3=O)[C@H](O)[C@@H](O)[C@@H]2O)[C@H](O)[C@H](O)[C@H]1O [Rutin]
- AUC(0-t) [1, 4]: 77.9 ± 11.9 ng·h/mL
- AUC(0-inf) [1, 6]: 116 ± 83.4 ng·h/mL
- CL/F [1, 6]: 342 mL/min/kg
- Cmax [1, 8]: 5.77 ± 0.62 ng/mL
- MRT last [1, 6]: 7.51 ± 0.81 h
- MRT inf [1, 6]: 15.4 ± 18.6 h
- half-life [1, 29]: 7.39 ± 14.3 h
- Tmax [1, 11]: 1.06 ± 1.47 h
- Tmax [1, 12]: > 0.47 h
- Stability, Accuracy (RE, %) [2, 13]: 0.42%
- Stability, Accuracy (RE, %) [2, 14]: 3.07%
- Stability, Accuracy (RE, %) [2, 15]: 7.93%
- Stability, Accuracy (RE, %) [2, 16]: 11.51%
- Stability, Accuracy (RE, %) [2, 17]: −6.74%
- Stability, Accuracy (RE, %) [2, 18]: 0.45%
- Stability, Accuracy (RE, %) [2, 19]: −1.16%
- Stability, Accuracy (RE, %) [2, 20]: 7.31%
- Stability, Accuracy (RE, %) [2, 21]: −5.30%
- Stability, Accuracy (RE, %) [2, 22]: 4.10%
- Stability, Accuracy (RE, %) [2, 23]: −8.01%
- Stability, Accuracy (RE, %) [2, 24]: −5.39%
